In US20070179161A1, “Pyrazolopyrimidine compounds and their use in medicine” (VERNALIS (CAMBRIDGE) LIMITED., priority 2003, published 2007):
Structures can show the parent of a compound that is named as a salt.

Experiments:
Type in all cases: biochemical
[1] = target: CDK-2 enzyme, complexed with cyclin A (Homo sapiens, UniProt P24941); assay: CDK2 enzyme inhibition assay (33P phosphorylation of peptide […], filter plate); settings: CDK-2/cyclin A, 0.1 mM ATP, 40 min at 30° C.
Description: (§1) The assay mixture containing the inhibitor and CDK-2 enzyme, complexed with cyclin A (0.4 U/ml) was mixed together in a microtiter plate in a final volume of 50 μl and incubated for 40 min at 30° C. The assay mixture contained 0.1 mM unlabeled ATP, 0.01 μCi/μl ^33P-γ-ATP, 0.03 mM peptide, 0.1 mg/ml BSA, 7.5 mM magnesium acetate, 50 mM HEPES-NaOH, pH 7.5. The reaction was stopped by adding 50 μl of 50 mM phosphoric acid. 90 μl of the mixture were transferred to a pre-wetted 96-well Multiscreen MAPHNOB filtration plate (Millipore) and filtered on a vacuum manifold. […] The filtration plate was dried for 10 min at 65° C., scintillant added and phosphorylated peptide quantified in a scintillation counter (Trilux, PerkinElmer)
HEPES is N-[2-Hydroxyethyl]piperazine-N′-[2-ethanesulfonic acid] BSA is bovine serum albumin.

GST-Chk1 enzyme = target: T1, GST-Chk1 enzyme (Homo sapiens, UniProt O14757); assay: Chk1 kinase inhibition assay (33P phosphorylation of Chktide, filter plate); settings: 0.01 mM ATP, 11 nM GST-Chk1, 40 minutes at 30° C.; read-out: Chk1 IC50
T1 sequence (O14757 1-476): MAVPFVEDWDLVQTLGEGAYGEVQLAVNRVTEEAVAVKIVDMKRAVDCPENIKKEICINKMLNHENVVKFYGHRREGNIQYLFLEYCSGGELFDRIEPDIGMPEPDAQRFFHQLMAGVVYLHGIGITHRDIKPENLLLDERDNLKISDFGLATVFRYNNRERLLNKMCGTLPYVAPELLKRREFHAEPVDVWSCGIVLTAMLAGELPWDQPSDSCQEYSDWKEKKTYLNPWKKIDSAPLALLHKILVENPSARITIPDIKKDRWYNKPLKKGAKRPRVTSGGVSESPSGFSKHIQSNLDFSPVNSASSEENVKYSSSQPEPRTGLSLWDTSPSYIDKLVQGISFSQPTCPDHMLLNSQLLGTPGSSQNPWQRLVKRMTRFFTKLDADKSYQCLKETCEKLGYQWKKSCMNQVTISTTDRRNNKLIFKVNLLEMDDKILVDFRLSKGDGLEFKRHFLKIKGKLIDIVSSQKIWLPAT
Description: The assay mixture containing the inhibitor and Chk1 enzyme was mixed together in a microtiter plate in a final volume of 50 μl and incubated for 40 minutes at 30° C.
The reaction was stopped by adding 50 μl of 50 mM phosphoric acid. 90 μl of the mixture was transferred to a pre-wetted 96-well Multiscreen MAPHNOB filtration plate (Millipore) and filtered on a vacuum manifold. […] The filtration plate was dried for 10 min at 65° C., scintillant added and phosphorylated peptide quantified in a scintillation counter (Trilux, PerkinElmer)

PDK1 enzyme = target: T2, PDK1 enzyme (Homo sapiens, UniProt O15530); assay: PDK1 kinase inhibition assay (33P phosphorylation of synthetic peptide, filter plate); settings: 0.01 mM ATP, 60 min at 30° C.; read-out: PDK1 IC50
T2 sequence (O15530 1-556): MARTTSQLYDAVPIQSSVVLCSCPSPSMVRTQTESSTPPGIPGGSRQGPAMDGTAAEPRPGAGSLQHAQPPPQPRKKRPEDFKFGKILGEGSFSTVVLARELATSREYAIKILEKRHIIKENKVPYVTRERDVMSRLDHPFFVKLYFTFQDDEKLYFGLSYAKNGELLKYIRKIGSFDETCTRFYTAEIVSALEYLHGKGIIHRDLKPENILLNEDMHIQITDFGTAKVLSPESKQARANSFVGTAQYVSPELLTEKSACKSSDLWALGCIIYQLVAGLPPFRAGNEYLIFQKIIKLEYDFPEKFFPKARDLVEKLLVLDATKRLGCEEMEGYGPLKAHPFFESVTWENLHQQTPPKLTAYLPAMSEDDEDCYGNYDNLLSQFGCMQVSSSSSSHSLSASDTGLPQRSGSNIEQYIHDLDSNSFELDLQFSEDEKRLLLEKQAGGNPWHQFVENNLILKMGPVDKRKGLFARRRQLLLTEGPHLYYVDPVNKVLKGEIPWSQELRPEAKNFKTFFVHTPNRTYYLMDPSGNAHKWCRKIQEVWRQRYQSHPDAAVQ
Description: as §1, with “and PDK1 enzyme” for “and CDK-2 enzyme, complexed with cyclin A (0.4 U/ml)”, “for 60” for “for 40”, “contained 0.01” for “contained 0.1”, “^33P-γ-ATP, 0.075” for “^33P-γ-ATP, 0.03”, “acetate, 0.05M Tris.HCl,” for “acetate, 50 mM HEPES-NaOH,”, “pH 7.5, 0.5% 2-mercaptoethanol.” for “pH 7.5.”

IC50 [1] [µM]	IC50 (GST-Chk1 enzyme) [µM]	IC50 (PDK1 enzyme) [µM]	SMILES
6.76	36.8	> 200	CC(C)c1cnn2c(Nc3ccc(S(=O)(=O)N(C)C)cc3)cc(C(=O)NCCN)nc12 [Example 118]
0.037	8	72	CC(C)c1cnn2c(Nc3ccc(S(=O)(=O)N(C)C)cc3)cc(CN3CCC(N)CC3)nc12 [Example 157]
0.101	19.6	96.5	CC(C)c1cnn2c(Nc3ccc(S(C)(=O)=O)nc3)cc(N[C@H]3CC[C@H](N)CC3)nc12 [Example 107]
0.177	> 200	> 200	CC(C)c1cnn2c(Nc3ccc(S(=O)(=O)N(C)C)cc3)cc(N3CCCC3CO)nc12 (stereo not drawn) [Example 104]
0.222	0.25	4.7	CS(=O)(=O)c1ccc(Nc2cc(N[C@H]3CC[C@@H](N)CC3)nc3c(Br)cnn23)cc1 [Example 164]
5.98	> 200	> 200	CC(C)c1cnn2c(Nc3ccc(S(=O)(=O)N(C)C)cc3)cc(N3CCC(CN(C)C)CC3)nc12 [Example 105]
0.155	20.5	19.9	CCCN(CCC)[C@H]1CC[C@H](Nc2cc(Nc3ccc(S(=O)(=O)N(C)C)cc3)n3ncc(C(C)C)c3n2)CC1 [Example 125]
0.594	> 200	> 200	CC(C)c1cnn2c(Nc3ccc(S(=O)(=O)N(C)C)cc3)cc(C(=O)N3CCC(O)CC3)nc12 [Example 120]
0.026	0.62	1.2	NC(=O)c1ccc(Nc2cc(N[C@H]3CC[C@@H](N)CC3)nc3c(Br)cnn23)cc1 [Example 165]
0.092	29.3	30.3	CCN(CC)[C@H]1CC[C@H](Nc2cc(Nc3ccc(S(=O)(=O)N(C)C)cc3)n3ncc(C(C)C)c3n2)CC1 [Example 100]
3.34	18.2	14.4	CC(C)c1cnn2c(Nc3ccc(S(=O)(=O)N(C)C)cc3)cc(NCC(C)(C)CN(C)C)nc12 [Example 106]
23.3	> 200	> 200	CC(C)c1cnn2c(Nc3ccc(S(=O)(=O)N(C)C)cc3)cc(C(=O)O)nc12 [Example 117]
0.14	10	57	CCc1cnn2c(Nc3ccc(C(N)=O)cc3)cc(Cl)nc12 [Example 149]
24.9	> 200	10	CN(C)S(=O)(=O)c1ccc(Nc2cc(Cl)nc3c(-c4ccsc4)cnn23)cc1 [Example 156]

The next lines start with the molecule.

SMILES	IC50 [1] [µM]	IC50 (GST-Chk1 enzyme) [µM]	IC50 (PDK1 enzyme) [µM]
NS(=O)(=O)c1ccc(Nc2cc(OC3CCCCC3)nc3ccnn23)cc1 [Example 22]	0.3	> 200	70.3
CC(C)c1cnn2c(Nc3ccc(S(=O)(=O)N(C)C)cc3)cc(N3CCC[C@H]3CN)nc12 [Example 97]	7.81	4.75	> 200
CCc1cnn2c(Nc3ccc(S(C)(=O)=O)cc3)cc(OCC(C)C)nc12 [Example 44]	0.179	> 200	79.1
Cc1cccc(-c2cc(Nc3ccc(S(=O)(=O)Nc4nccs4)cc3)n3nccc3n2)c1 [Example 17]	3.17	> 200	31.6
Fc1ccc(Nc2cc(-c3ccccc3)nc3ccnn23)cc1 [Example 1, 5-Phenyl-7-(4-fluorophenylamino)pyrazolo[1,5-a]pyrimidine hydrochloride]	6.09	> 200	> 200
Cc1cccc(-c2cc(Nc3ccc(S(=O)(=O)Nc4ccccn4)cc3)n3nccc3n2)c1 [Example 18]	0.96	52.4	> 200
CC(C)c1cnn2c(Nc3ccc(S(=O)(=O)N(C)C)cc3)cc(N3CCCC(C(=O)O)C3)nc12 (stereo not drawn) [Example 82]	4.23	> 200	> 200
CC(C)c1cnn2c(Nc3ccc(S(=O)(=O)N(C)CCO)cc3)cc(Cl)nc12 [Example 34]	0.127	> 200	> 200
CCNc1cc(Nc2ccc(S(C)(=O)=O)cc2)n2ncc(C(C)C)c2n1 [Example 56]	0.85	> 200	45.3
CC(C)c1cnn2c(Nc3ccc(S(=O)(=O)N(C)C)cc3)cc(N[C@H]3CC[C@H](NC(=O)CN(C)C)CC3)nc12 [Example 86]	0.03	> 200	> 200
CC(C)c1cnn2c(Nc3ccc(S(=O)(=O)NCC4CCCO4)cc3)cc(Cl)nc12 (stereo not drawn) [Example 35]	0.191	> 200	> 200
CC(C)c1cnn2c(Nc3ccc(S(=O)(=O)N(C)CCN(C)C)cc3)cc(Cl)nc12 [Example 60]	0.04	> 200	> 200
CC(C)c1cnn2c(Nc3ccc(S(=O)(=O)N(C)C)cc3)cc(N(C)CCCN(C)C)nc12 [Example 74]	7.27	18.6	> 200
COc1ccc(CNc2cc(-c3ccsc3)nc3ccnn23)cc1 [Example 8]	7.55	> 200	> 200
CC(C)COc1cc(Nc2ccc(S(=O)(=O)N(C)CCN(C)C)cc2)n2ncc(C(C)C)c2n1 [Example 72]	1.28	8.4	> 200
CS(=O)(=O)c1ccc(Nc2cc(Cl)nc3c(Cc4ccccc4)cnn23)cc1 [Example 23]	> 200	> 200	> 200
CC(C)c1cnn2c(Nc3ccc(S(=O)(=O)N(C)C)cc3)cc(NC3CCCCC3)nc12 [Example 63]	0.355	> 200	> 200
COCCNS(=O)(=O)c1ccc(Nc2cc(Cl)nc3c(C(C)C)cnn23)cc1 [Example 36]	0.715	> 200	> 200
CC(C)c1cnn2c(Nc3ccc(S(=O)(=O)NCCO)cc3)cc(Cl)nc12 [Example 37]	1.51	> 200	> 200
NS(=O)(=O)c1ccc(Nc2cc(Cl)nc3ccnn23)cc1 [Example 12]	0.72	> 200	> 200
NS(=O)(=O)c1ccc(Nc2ccnc3ccnn23)cc1 [Example 20]	1.76	> 200	> 200
Cc1noc(C)c1-c1cc(Nc2ccc(F)cc2)n2nccc2n1 [Example 2, 5-(3,5-Dimethylisoxazole)-7-(4-fluorophenylamino)pyrazolo[1,5-a]pyrimidine]	13.4	> 200	> 200
CC(C)COc1cc(Nc2ccc(S(=O)(=O)N(C)CCO)cc2)n2ncc(C(C)C)c2n1 [Example 42]	0.17	> 200	> 200
